Data published in PMC4851381, “High Throughput Screening Identifies Novel Lead Compounds with Activity against Larval, Juvenile and Adult Schistosoma mansoni” (PLoS Neglected Tropical Diseases, 2016).
Read-outs that look alike come from different tables or passages of the source.

Columns and labels:
[1] = test system: S. mansoni schistosomula; parameters: method as in PMID 19597541, PMID 20668553; details: cited from earlier work
[2] = test system: P. falciparum; parameters: method as in Pubchem; details: ref Pubchem; cited from earlier work
[3] = test system: Pyoellii; parameters: method as in ChEMBL; details: reported by Novartis in Science paper; ref ChEMBL; cited from earlier work
[4] = test system: TrxR1; parameters: method as in ChEMBL; details: ref ChEMBL; cited from earlier work
[5] = test system: TRPC4; parameters: method as in ChEMBL; details: ref ChEMBL; cited from earlier work
[6] = Cytotoxicity assay (Alamar blue); assay type: cell-based; details: human
Description: Activity against mammalian cells was determined using MRC-5 cells. Cells were maintained in Minimum Essential Medium supplemented with glutamax (Gibco, UK), 1% non-essential amino acids (Gibco, UK) and 10% Foetal bovine serum (Gibco, UK). They were harvested by treatment with 0.25% Trypsin-EDTA for 3 minutes and diluted to 1x10^5/ml. 100μl aliquots of the cell suspension were then plated in 96 well plates (Nunc, Thermo Fisher Scientific, UK). The plates were left to incubate for 24 hours at 37°C and 5% CO2 in a humidified incubator. Cytotoxicity DR assays were set up 24 hours post incubation at 5% CO2 and 37°C, with compounds prepared at 3-fold dilutions starting from 50μM. Dilutions were added to the cells such that the final % DMSO/well was 0.5%. Each drug concentration was tested in duplicate. On each 96 well plate there were negative control wells of media only, MRC-5 cells only and MRC-5 cells with 0.5% DMSO. For positive control wells doxorubicin hydrochloride (Sigma-Aldrich, UK) was added to the cells at 100μM concentration. The cultures were then maintained for a further 72 hours at 37°C and 5% CO2. Drug cytotoxicity was determined using the redox indicator Alamar blue (AbD Serotec, UK). 10μl of Alamar Blue was added to each well and the plates incubated for 4 hours at 37°C and 5% CO2 atmosphere. The fluorescence intensity was measured using a Spectramax Gemini plate reader (Molecular Devices, UK) using an excitation wavelength of 530 nm and an emission wavelength of 580 nm.
(§1) IC50 values were calculated from the drug concentration–response curves using Microsoft XLfit version 5.1.0.0 (2006–2008 ID Business Solutions Ltd). Results were expressed as the geometric mean IC50.

[7] = test system: S. mansoni adult worms; assay: Adult worm assay, single point and dose response; assay type: cell-based; details: Schistosoma mansoni
Description: (§2) For production of S. mansoni juvenile or adult worms, mice were infected subcutaneously under mild isoflurane (Merial Animal Health Ltd (UK)) anaesthesia with, respectively 1400 (for juveniles) or 450 cercariae (for adults). Worms were recovered from infected mice using sterile techniques by portal perfusion 3 weeks (for juveniles) or 6 weeks (for adults) post-infection using warm perfusion medium (Dulbecco’s Modified Eagle’s Medium [DMEM], 2mM L-glutamine, 100 Units/ml penicillin, 100μg/ml streptomycin, 20mM Hepes, 10 Units/ml heparin [Sigma, UK] [8]. Adult worms were washed free of red blood cells using the perfusion medium, and finally placed in culture in complete medium (cDMEM: DMEM, 2mM L-glutamine, 100 Units/ml penicillin, 100μg/ml streptomycin, 10% foetal calf serum (FCS) at 37°C, in an atmosphere of 5% CO2. Juvenile worms were sedimented successively following washing with cold perfusion medium and then suspended in cold cDMEM until dispensed to avoid attachment to the plastic tubes.
(§3) For the juvenile assay the concentration of worms was adjusted to 40/ml cDMEM and, prior to dispensing, the suspension was cooled on ice to prevent adherence of the worms to the plastic bottles. After swirling to resuspend worms,150μL of suspension was added to the wells of 96 well microtitre plates (Nunc, Thermo Fisher Scientific, UK). Wells were quickly checked and those with <5 worms were marked. The remainder were made up to 200μL and the deficient wells topped up with a worm suspension to ensure that all wells had ≥5 worms. The adult worm assay was as described in [8] except that 1ml cultures containing 3 worm pairs were generally used. Both the juvenile and adult worm assays were assessed for activity on days +1 and +5. Drug effects were determined by assessing the viability of individual worms and calculating the mean percentage inhibition, a hit being defined as ≥70% reduction in viability.
(§4) The primary HTS and subsequent juvenile and adult screens were run as single point (SP) assays at 10–12.5μM depending on the concentrations in the compound collections. Compounds were tested in duplicate. Where necessary, repeat testing was carried out on re-supplied liquid samples. All compounds of interest were re-tested as solid compounds or by repeat synthesis and activity confirmed.
(§5) Compounds with activity against all three parasite stages were tested in parallel dose response (DR) assays against juvenile worms and MRC-5 cells. Promising compounds were then tested in the adult DR. For the parasite DR (larvae, juveniles and adults) the concentrations tested were two fold dilutions starting from 2x the primary screening concentrations (i.e. 20–25μM).
as §1

[8] = test system: S. mansoni schistosomula; assay: Larval HTS and larval dose response (image-based phenotype and motility of schistosomula); assay type: cell-based, Schistosoma mansoni; parameters: Motility score: scale not given here; details: for Motility score / Phenotype score: 10μM control wells; for EC50: Schistosoma mansoni, 72 h, 3 day assay, geometric mean
Description: Experiments were performed using the Puerto Rican strain of S. mansoni maintained in Biomphalaria glabrata and CD1 mice. The strain of snail was one bred by Prof Mike Doenhoff (Nottingham University) for high susceptibility to S. mansoni and ease of breeding in large numbers to high density. Careful attention was paid to controlling infections with rotifers which otherwise would contaminate the HTS schistosomula preparations as well as affecting snail viability. This included recovery of egg masses on short length pieces of polypropylene tubing placed into the breeding tanks and treatment of these with 3 x 10 seconds immersion in 70% ethanol with 3 minutes soaking in clean water in between alcohol treatments. Schistosomula were mechanically prepared as previously described with the modification of using a 45% and 70% Percoll gradient, and the cercarial heads recovered from the 70% layer. All centrifugation steps were done at 350x g. The schistosomula generated were then incubated overnight in M169 supplemented with 100U/ml Penicillin, 300μg/ml Streptomycin, 0.25μg/ml Fungizone (Amphotericin B) (Gibco, UK) and 5% Foetal Calf serum.
The larval HTS was run as described previously. Compound libraries were provided in 384 well plates as liquid either (i) small volumes in polypropylene 384 V-bottom storage plates (Greinerbio-one) that were diluted and 500nL dispensed into black 384 imaging plates (ViewPlate 6007460; PerkinElmer) using the Biomek FxP (Beckman Coulter) or (ii) in an assay-ready format from which a 40nL volume was transferred into wells of imaging plates. […] Therefore, to prevent fungal contamination 0.25μg/ml (0.27μM) of amphotericin B (AMP-B) was added to cultures both during the overnight culture prior to plating and during the 3 day assay.
The primary HTS and subsequent juvenile and adult screens were run as single point (SP) assays at 10–12.5μM depending on the concentrations in the compound collections. Compounds were tested in duplicate. Where necessary, repeat testing was carried out on re-supplied liquid samples.
as §5, §1

[9] = test system: S. mansoni juvenile worms; assay: Juvenile worm assay (3 week old worms), single point and dose response; assay type: cell-based; details: Schistosoma mansoni
Description: as §2, §3, §4, §5, §1

[10] = test system: S. mansoni schistosomula; assay: Larval HTS and larval dose response (image-based phenotype and motility of schistosomula); assay type: cell-based, Schistosoma mansoni; parameters: Motility score: scale not given here; details: 10μM control wells, -AMP-B
[11] = 24 h, day 1, read-out: Adult % motility reduction DAY 1
[12] = 120 h, day 5, read-out: Adult % motility reduction DAY 5
[13] = Enamine library plates, negative control adjusted to zero
[14] = GSK library plates, negative control adjusted to zero
[15] = MMV library plates, mean ±SD, negative control adjusted to zero
[16] = MMV library plates, negative control adjusted to zero
[17] = Pfizer library plates, negative control adjusted to zero
[18] = 24 h, day 1, read-out: Juvenile (% motility reduction) DAY 1
[19] = 120 h, day 5, read-out: Juvenile (% motility reduction) DAY 5
[20] = first value of cell, geometric mean, * n = 1
[21] = MRC-5 cells, first value of cell, 72 hours, read-out: MRC5 CC50
[22] = MRC-5 cells, value in parentheses (second sample; solid vs original liquid sample), read-out: MRC5 CC50
[23] = value in parentheses (second sample; solid vs original liquid sample)

| Structure (SMILES) | inhibition at 12.5 µM [7, 11] | inhibition at 12.5 µM [7, 12] | EC50 ([7]; first value of cell, * n = 1) | EC50 [8] | inhibition at 12.5 µM [9, 18] | inhibition at 12.5 µM [9, 19] | EC50 [9, 20] | CC50 at 72 h [6, 21] | EC50 [7, 23] | EC50 [9, 23] | other results |
| --- | --- | --- | --- | --- | --- | --- | --- | --- | --- | --- | --- |
| C[C@@H]1[C@H](O)[C@@H](C)/C=C/C=C/C=C/C=C/C=C/C=C/C=C/[C@H](O[C@@H]2O[C@H](C)[C@@H](O)[C@H](N)[C@@H]2O)C[C@@H]2O[C@](O)(C[C@@H](O)C[C@@H](O)[C@H](O)CC[C@@H](O)C[C@@H](O)CC(=O)O[C@H]1C)C[C@H](O)[C@H]2C(=O)O [AMP-B, amphotericin B] | – | – | – | – | – | – | – | – | – | – | concentrations reported to have lethal activity [1]: 1 to 10 µM |
| c1ccc(-c2cc(N3CCN(c4ccccn4)CC3)nc(-c3ccccn3)n2)nc1 [CHEMBL579352] | – | – | – | – | – | – | – | – | – | – | activity vs two Pfalciparum strains [2]: < 100 nM; activity vs Pyoellii [3]: 17.5 nM |
| CCOC(=O)C1CCN(C(c2ccccn2)c2c(C)[nH]c3ccccc23)CC1 (centres unmarked) [CHEMBL1390809] | – | – | – | – | – | – | – | – | – | – | activity vs TrxR1 [4]: 1.5 µM; activity as an activator of TRPC4 [5]: 5 to 10 µM |
| Cc1c(-c2cnccn2)ssc1=S [Oltipraz] | 50% | 95% | 0.85 µM | 0.5 µM | 51% | 100% | 0.8 µM | – | – | – | CC50 at 72 h ([6]; MRC5 CC50): > 50 µM; Motility score [8, 13]: -0.91 ±0.04; Phenotype score [8, 13]: -0.49 ±0.13; Motility score [8, 14]: -0.93 ±0.03; Phenotype score [8, 14]: -0.64 ±0.06; Phenotype score [8, 15]: -0.55 ±0.06; Motility score [8, 16]: -0.95 ±0.02; Motility score [8, 17]: -0.94 ±0.02; Phenotype score [8, 17]: -0.56 ±0.08 |
| O=C(C1CCCCC1)N1CC(=O)N2CCc3ccccc3C2C1 (centres unmarked) [Praziquantel] | 76% | 88% | 0.3 µM | 1.9 µM | 57% | 58.4% | 4.7 µM | – | – | – | CC50 at 72 h ([6]; MRC5 CC50): > 50 µM; Motility score [10]: -0.53 ± 0.10; Phenotype score [10]: -0.21 ± 0.12; Motility score ([8]; +AMP-B (0.25μg/ml)): -0.57 ± 0.10; Phenotype score ([8]; +AMP-B (0.25μg/ml)): -0.38 ± 0.08; Motility score [8, 13]: -0.52 ±0.08; Phenotype score [8, 13]: -0.35 ±0.09; Motility score [8, 14]: -0.67 ±0.12; Phenotype score [8, 14]: -0.50 ±0.10; Phenotype score [8, 15]: -0.37 ±0.09; Motility score [8, 16]: -0.57 ±0.10; Motility score [8, 17]: -0.63 ±0.07; Phenotype score [8, 17]: -0.37 ±0.04 |
| Cc1ccccc1C(=O)N1N=C(Nc2ccccc2)SC1(C)C [compound 1355] | 75% | 100% | 5.3 µM | 6.7 µM | 75% | 75% | 5.8 µM | > 50 µM | 11.2 µM | 14.3 µM | CC50 at 72 h [6, 22]: 33.8 µM |
| COc1ccc(-c2nnc3ccc(-c4cccc(C(C)C)c4)cn23)cc1OC [compound 1507] | 75% | 88% | 1.6 µM | 6.6 µM | 75% | 75% | 4 µM | 18.6 µM | 3 µM | 9.8 µM | – |
| Clc1ccc(SCc2cc(N3CCCC3)nc(-c3ccccn3)n2)cc1 [compound 1716] | 64% | 98% | 2.8 µM | 0.3 µM | 0% | 84% | 11 µM | > 50 µM | 5.4 µM | 9.5 µM | CC50 at 72 h [6, 22]: > 50 µM |
| COc1ccc(-c2cnc3cnc(-c4cccc(OC(C)C)c4)cn23)cc1 [compound 1945] | 75% | 75% | 4.9 µM | 6.7 µM | 75% | 75% | 5.7 µM | 40.1 µM | – | 13.7 µM | – |
| c1ccc(-c2[nH]c3ccccc3c2C(c2ccccn2)N2CCCC2)cc1 (centres unmarked) [compound 1956] | 56% | 81% | 3.2 µM | 0.5 µM | 75% | 100% | 2.5 µM | > 50 µM | 11.8 µM | 3.7 µM | – |
| c1ccc(Oc2ccc(-c3cncc(-c4ccc5[nH]ccc5c4)n3)cc2)cc1 [compound 2045] | 37% | 88% | 3.7 µM | 1.4 µM | 50% | 100% | 2.1 µM | 20 µM | 11 µM | 3.6 µM | – |
| COc1ccccc1NC1=NN=C(c2cccc(N3CCCC3=O)c2)CS1 [compound 2389] | 12.5% | 100% | 6 µM | 6.1 µM | 0% | 100% | 5.1 µM | > 50 µM | 7.1 µM | 5 µM | CC50 at 72 h [6, 22]: > 50 µM |
